Numbers after ± are expanded uncertainties. Blank lines part the entries; values can stand above or below the compound they belong to.
Legend:
[1] = 303.15 K; 101.33 kPa; Liquid; Capillary tube (Ostwald / Ubbelohde) method
[2] = mn = molality of the nth substance listed, in mol/kg; conditions: 303.15 K, 101 kPa, Liquid, Capillary tube (Ostwald / Ubbelohde) method

- viscosity [1]: 1.075 ± 0.0079 mPa·s
SMILES: C1COCCO1 [1,4-dioxane]

- viscosity [1]: 0.4442 ± 0.0054 mPa·s
SMILES: CCCCN [1-butanamine]

- viscosity [1]: 0.7584 ± 0.0071 mPa·s
SMILES: CCCCNCCCC [dibutylamine]

- viscosity [1]: 0.5118 ± 0.0058 mPa·s
SMILES: CCCNCCC [dipropylamine]

- viscosity [1]: 0.3527 ± 0.005 mPa·s
SMILES: CCCN [propan-1-amine]

- viscosity [1]: 0.326 ± 0.0047 mPa·s
SMILES: C1CCOC1 [tetrahydrofuran]

- viscosity [1]: 1.167 ± 0.0097 mPa·s
SMILES: CCCCN(CCCC)CCCC [tributylamine]

- viscosity ([2]; m1 = 0.1229): 1.062 ± 0.0078 mPa·s
- viscosity ([2]; m1 = 0.2173): 1.05 ± 0.0078 mPa·s
- viscosity ([2]; m1 = 0.3227): 1.033 ± 0.0077 mPa·s
- viscosity ([2]; m1 = 0.4476): 1.023 ± 0.0077 mPa·s
- viscosity ([2]; m1 = 0.5768): 1.008 ± 0.0076 mPa·s
- viscosity ([2]; m1 = 0.7655): 0.9912 ± 0.0075 mPa·s
- viscosity ([2]; m1 = 0.8789): 0.9804 ± 0.0075 mPa·s
- viscosity ([2]; m1 = 1.028): 0.9659 ± 0.0074 mPa·s
- viscosity ([2]; m1 = 1.179): 0.9569 ± 0.0074 mPa·s
SMILES: CCCCN(CCCC)CCCC [tributylamine] + C1COCCO1

- viscosity [1]: 0.3296 ± 0.0049 mPa·s
SMILES: CCN(CC)CC [triethylamine]

- viscosity ([2]; m1 = 0.1482): 0.327 ± 0.0047 mPa·s
- viscosity ([2]; m1 = 0.3064): 0.3293 ± 0.0047 mPa·s
- viscosity ([2]; m1 = 0.4546): 0.3307 ± 0.0047 mPa·s
- viscosity ([2]; m1 = 0.588): 0.3315 ± 0.0047 mPa·s
- viscosity ([2]; m1 = 0.7856): 0.3361 ± 0.0047 mPa·s
- viscosity ([2]; m1 = 0.8993): 0.3349 ± 0.0047 mPa·s
- viscosity ([2]; m1 = 1.056): 0.3376 ± 0.0048 mPa·s
- viscosity ([2]; m1 = 1.24): 0.3386 ± 0.0048 mPa·s
- viscosity ([2]; m1 = 1.418): 0.341 ± 0.0048 mPa·s
SMILES: CCN(CC)CC [triethylamine] + C1CCOC1

- viscosity ([2]; m1 = 0.159): 1.054 ± 0.0078 mPa·s
- viscosity ([2]; m1 = 0.2697): 1.042 ± 0.0077 mPa·s
- viscosity ([2]; m1 = 0.4098): 1.018 ± 0.0076 mPa·s
- viscosity ([2]; m1 = 0.5388): 0.998 ± 0.0075 mPa·s
- viscosity ([2]; m1 = 0.6616): 0.98 ± 0.0074 mPa·s
- viscosity ([2]; m1 = 0.8419): 0.955 ± 0.0073 mPa·s
- viscosity ([2]; m1 = 0.9909): 0.932 ± 0.0072 mPa·s
- viscosity ([2]; m1 = 1.135): 0.914 ± 0.0071 mPa·s
- viscosity ([2]; m1 = 1.27): 0.894 ± 0.0071 mPa·s
SMILES: CCN(CC)CC [triethylamine] + C1COCCO1

- viscosity [1]: 0.5977 ± 0.0062 mPa·s
SMILES: CCCN(CCC)CCC [tripropylamine]

- viscosity ([2]; m1 = 0.1317): 0.3305 ± 0.0047 mPa·s
- viscosity ([2]; m1 = 0.2429): 0.3364 ± 0.0047 mPa·s
- viscosity ([2]; m1 = 0.3465): 0.3397 ± 0.0047 mPa·s
- viscosity ([2]; m1 = 0.4545): 0.3447 ± 0.0048 mPa·s
- viscosity ([2]; m1 = 0.5811): 0.3523 ± 0.0048 mPa·s
- viscosity ([2]; m1 = 0.6842): 0.3577 ± 0.0048 mPa·s
- viscosity ([2]; m1 = 0.8378): 0.3607 ± 0.0048 mPa·s
- viscosity ([2]; m1 = 0.9371): 0.3681 ± 0.0049 mPa·s
- viscosity ([2]; m1 = 1.114): 0.3753 ± 0.0049 mPa·s
SMILES: CCCN(CCC)CCC [tripropylamine] + C1CCOC1

- viscosity ([2]; m1 = 0.1093): 1.06 ± 0.0078 mPa·s
- viscosity ([2]; m1 = 0.2293): 1.045 ± 0.0077 mPa·s
- viscosity ([2]; m1 = 0.3509): 1.032 ± 0.0077 mPa·s
- viscosity ([2]; m1 = 0.4408): 1.022 ± 0.0076 mPa·s
- viscosity ([2]; m1 = 0.5919): 1.007 ± 0.0076 mPa·s
- viscosity ([2]; m1 = 0.7147): 0.9934 ± 0.0075 mPa·s
- viscosity ([2]; m1 = 0.8383): 0.9807 ± 0.0075 mPa·s
- viscosity ([2]; m1 = 0.9836): 0.9694 ± 0.0074 mPa·s
- viscosity ([2]; m1 = 1.151): 0.9571 ± 0.0074 mPa·s
SMILES: CCCN(CCC)CCC [tripropylamine] + C1COCCO1

Source: the NIST ThermoML archive (doi:10.1016/j.tca.2009.07.008)
